# Peptide text beside a SMILES is read from it.
# Tested on: 11 clinically relevant bacterial pathogens
# Assay: MIC over the panel of pathogens
# Type: cell-based
# Conditions: Table S17; lowest MIC over the strains tested
row,SMILES,MIC (lowest MIC value obtained in the antimicrobial activity assays) [mM]
1,CC[C@H](C)[C@H](N)C(=O)N[C@@H](CC(C)C)C(=O)N[C@H](C(=O)N[C@@H](CC(C)C)C(=O)N[C@@H](Cc1ccccc1)C(=O)N[C@H](C(=O)N[C@H](C(=O)N[C@@H](Cc1ccccc1)C(=O)N[C@@H](CCC(N)=O)C(=O)N[C@@H](CC(C)C)C(=O)N[C@@H](CCCCN)C(=O)N[C@H](C(=O)N[C@@H](CO)C(=O)N[C@@H](CCCCN)C(=O)N[C@@H](CC(C)C)C(=O)O)[C@@H](C)CC)[C@@H](C)CC)[C@@H](C)CC)[C@@H](C)O [Paleopropin-2] (H-ILTLFIIFQLKISKL-OH),16000
2,CC[C@H](C)[C@H](NC(=O)[C@H](CCCCN)NC(=O)[C@@H](NC(=O)[C@H](Cc1c[nH]c2ccccc12)NC(=O)[C@H](CCCCN)NC(=O)[C@@H](N)CCCCN)[C@@H](C)O)C(=O)N[C@@H](Cc1ccc(O)cc1)C(=O)N[C@@H](CO)C(=O)N1CCC[C@H]1C(=O)N[C@@H](CC(C)C)C(=O)N[C@@H](CO)C(=O)N[C@@H](CC(C)C)C(=O)O [Smilodin-1] (H-KKWTKIYSPLSL-OH),64000
3,CC[C@H](C)[C@H](NC(=O)[C@H](CC(N)=O)NC(=O)[C@H](CC(C)C)NC(=O)[C@@H](NC(=O)[C@H](Cc1ccccc1)NC(=O)[C@@H]1CCCN1C(=O)[C@@H]1CCCN1C(=O)[C@@H](NC(=O)[C@H](CO)NC(=O)[C@H](CC(C)C)NC(=O)[C@H](CCCCN)NC(=O)[C@H](CCCCN)NC(=O)[C@H](Cc1ccc(O)cc1)NC(=O)[C@@H](NC(=O)[C@@H](N)CCCCN)[C@@H](C)CC)[C@@H](C)O)[C@@H](C)O)C(=O)N[C@@H](CCCNC(=N)N)C(=O)N[C@H](C(=O)N[C@@H](CC(C)C)C(=O)N1CCC[C@H]1C(=O)N[C@@H](CCCCN)C(=O)N[C@H](C(=O)N[C@@H](CCCCN)C(=O)N[C@@H](Cc1ccccc1)C(=O)N1CCC[C@H]1C(=O)N[C@@H](CCCCN)C(=O)O)C(C)C)[C@@H](C)O [Mylodonin-3] (H-KIYKKLSTPPFTLNIRTLPKVKFPK-OH),16000
4,CC[C@H](C)[C@H](NC(=O)[C@@H](NC(=O)[C@H](CCSC)NC(=O)[C@@H](N)Cc1c[nH]c2ccccc12)[C@@H](C)O)C(=O)N[C@@H](Cc1c[nH]cn1)C(=O)N[C@@H](C)C(=O)N[C@@H](CC(C)C)C(=O)N[C@@H](CCCCN)C(=O)N[C@@H](CC(C)C)C(=O)N[C@@H](CO)C(=O)N[C@@H](CC(C)C)C(=O)N[C@@H](CO)C(=O)N[C@@H](Cc1ccccc1)C(=O)N[C@@H](CCCCN)C(=O)N[C@@H](CC(C)C)C(=O)O [Mammutin-1] (H-WMTIHALKLSLSFKL-OH),2000
5,CC[C@H](C)[C@H](NC(=O)[C@H](CCCNC(=N)N)NC(=O)[C@H](Cc1c[nH]cn1)NC(=O)[C@H](CCCCN)NC(=O)[C@@H](NC(=O)CNC(=O)[C@H](CCCNC(=N)N)NC(=O)[C@H](C)NC(=O)[C@H](CCCCN)NC(=O)[C@@H](NC(=O)[C@H](C)NC(=O)[C@@H]1CCCN1C(=O)[C@H](CC(C)C)NC(=O)[C@H](CCC(N)=O)NC(=O)[C@H](CO)NC(=O)[C@H](Cc1ccccc1)NC(=O)[C@H](CC(C)C)NC(=O)[C@H](CC(C)C)NC(=O)[C@@H](NC(=O)[C@@H](N)CS)C(C)C)C(C)C)[C@@H](C)O)C(=O)N[C@@H](CCCCN)C(=O)N[C@@H](Cc1c[nH]c2ccccc12)C(=O)N[C@@H](CC(N)=O)C(=O)N[C@@H](CCCNC(=N)N)C(=O)N[C@@H](CCCCN)C(=O)O [Equusin-4] (H-CVLLFSQLPAVKARGTKHRIKWNRK-OH),16000
6,CC[C@H](C)[C@H](NC(=O)[C@H](CCCCN)NC(=O)[C@H](CC(N)=O)NC(=O)[C@@H](NC(=O)[C@@H](NC(=O)[C@H](Cc1c[nH]c2ccccc12)NC(=O)[C@H](CC(C)C)NC(=O)[C@H](CCC(N)=O)NC(=O)[C@H](CC(C)C)NC(=O)[C@@H](NC(=O)[C@H](C)NC(=O)[C@H](CC(C)C)NC(=O)[C@@H](N)CCCNC(=N)N)[C@@H](C)O)[C@@H](C)O)[C@@H](C)CC)C(=O)N[C@H](C(=O)N[C@@H](CCCCN)C(=O)N[C@@H](CCC(N)=O)C(=O)N[C@@H](CC(C)C)C(=O)N[C@@H](CCSC)C(=O)N[C@H](C(=O)N1CCC[C@H]1C(=O)N[C@@H](CC(C)C)C(=O)N[C@@H](CC(N)=O)C(=O)N[C@@H](CCCCN)C(=O)N1CCC[C@H]1C(=O)NCC(=O)N[C@@H](Cc1c[nH]cn1)C(=O)N[C@@H](CCCCN)C(=O)O)[C@@H](C)CC)[C@@H](C)O [Ararin-2] (H-RLATLQLWTINKITKQLMIPLNKPGHK-OH),16000
7,CC[C@H](C)[C@H](NC(=O)[C@H](CC(C)C)NC(=O)[C@H](Cc1c[nH]cn1)NC(=O)[C@@H](NC(=O)[C@H](CC(C)C)NC(=O)[C@H](CC(C)C)NC(=O)[C@H](Cc1c[nH]cn1)NC(=O)CN)[C@@H](C)CC)C(=O)NCC(=O)N[C@@H](CCCCN)C(=O)N[C@@H](C)C(=O)N[C@H](C(=O)N[C@@H](CC(C)C)C(=O)N[C@@H](C)C(=O)N[C@@H](CC(C)C)C(=O)O)[C@@H](C)O [Arctoterin-1] (H-GHLLIHLIGKATLAL-OH),64000
8,CC(C)C[C@H](NC(=O)[C@H](CC(C)C)NC(=O)[C@@H](NC(=O)[C@H](CCCNC(=N)N)NC(=O)[C@H](C)NC(=O)[C@H](Cc1ccccc1)NC(=O)[C@H](CCCNC(=N)N)NC(=O)[C@H](CO)NC(=O)[C@H](Cc1c[nH]c2ccccc12)NC(=O)[C@H](CCCNC(=N)N)NC(=O)[C@H](CC(C)C)NC(=O)[C@H](CCCCN)NC(=O)[C@H](CC(C)C)NC(=O)[C@@H](N)Cc1ccccc1)C(C)C)C(=O)O [Equusin-1] (H-FLKLRWSRFARVLL-OH),1000
9,CC[C@H](C)[C@H](NC(=O)[C@H](Cc1ccccc1)NC(=O)[C@@H](N)CCCCN)C(=O)N[C@@H](CC(C)C)C(=O)N[C@@H](CC(N)=O)C(=O)N[C@@H](Cc1ccccc1)C(=O)N[C@@H](CCCCN)C(=O)N[C@H](C(=O)N1CCC[C@H]1C(=O)N[C@H](C(=O)N[C@@H](CO)C(=O)N[C@@H](Cc1ccccc1)C(=O)N[C@@H](CCCCN)C(=O)O)[C@@H](C)CC)[C@@H](C)CC [Pinguinusin-1] (H-KFILNFKIPISFK-OH),4000
10,CC[C@H](C)[C@H](NC(=O)CNC(=O)[C@H](Cc1c[nH]cn1)NC(=O)[C@H](CC(N)=O)NC(=O)[C@H](CCCCN)NC(=O)[C@H](CCC(N)=O)NC(=O)[C@@H](N)CCCNC(=N)N)C(=O)N[C@@H](Cc1c[nH]cn1)C(=O)N[C@@H](Cc1ccccc1)C(=O)N[C@@H](CCCNC(=N)N)C(=O)N[C@H](C(=O)N[C@@H](CC(C)C)C(=O)N[C@@H](C)C(=O)N[C@@H](CCCCN)C(=O)N[C@@H](C)C(=O)N[C@@H](CC(C)C)C(=O)N[C@@H](CCCNC(=N)N)C(=O)O)C(C)C [Hesperelin-3] (H-RQKNHGIHFRVLAKALR-OH),64000
11,CC[C@H](C)[C@H](NC(=O)[C@H](CCCCN)NC(=O)[C@H](CC(C)C)NC(=O)[C@H](CCC(N)=O)NC(=O)[C@H](Cc1ccccc1)NC(=O)[C@@H](NC(=O)[C@@H](NC(=O)[C@H](Cc1ccccc1)NC(=O)[C@H](CC(C)C)NC(=O)[C@@H](NC(=O)[C@@H](N)CC(C)C)[C@@H](C)O)[C@@H](C)CC)[C@@H](C)CC)C(=O)N[C@@H](CO)C(=O)N[C@@H](CCCCN)C(=O)N[C@@H](CC(C)C)C(=O)O [Paleopropin-1] (H-LTLFIIFQLKISKL-OH),32000
12,CC[C@H](C)[C@H](NC(=O)[C@H](CCCCN)NC(=O)[C@H](CO)NC(=O)[C@H](CC(N)=O)NC(=O)[C@H](Cc1ccccc1)NC(=O)[C@H](Cc1c[nH]cn1)NC(=O)[C@H](Cc1ccccc1)NC(=O)[C@@H](N)Cc1c[nH]c2ccccc12)C(=O)N[C@@H](CC(C)C)C(=O)N[C@@H](CC(C)C)C(=O)N[C@@H](CC(C)C)C(=O)N[C@H](C(=O)NCC(=O)N[C@@H](CC(C)C)C(=O)O)[C@@H](C)O [Mylodonin-1] (H-WFHFNSKILLLTGL-OH),8000
13,CC[C@H](C)[C@H](N)C(=O)N[C@@H](Cc1ccccc1)C(=O)N[C@@H](CC(C)C)C(=O)N[C@@H](Cc1c[nH]cn1)C(=O)N[C@@H](CC(C)C)C(=O)N[C@@H](CCCCN)C(=O)N[C@H](C(=O)N[C@@H](CC(C)C)C(=O)N[C@@H](CCCCN)C(=O)N[C@H](C(=O)N[C@H](C(=O)N[C@@H](Cc1c[nH]cn1)C(=O)N[C@@H](CC(C)C)C(=O)N[C@@H](CC(C)C)C(=O)O)[C@@H](C)CC)[C@@H](C)CC)[C@@H](C)O [Mammuthusin-1] (H-IFLHLKTLKIIHLL-OH),4000
14,CC[C@H](C)[C@H](NC(=O)[C@H](CC(C)C)NC(=O)[C@H](CCCNC(=N)N)NC(=O)[C@H](Cc1c[nH]c2ccccc12)NC(=O)[C@H](CC(C)C)NC(=O)[C@@H](NC(=O)[C@H](CCCNC(=N)N)NC(=O)[C@H](CCC(N)=O)NC(=O)[C@H](Cc1ccc(O)cc1)NC(=O)[C@H](CC(C)C)NC(=O)[C@@H](N)CCCCN)[C@@H](C)CC)C(=O)N[C@@H](CO)C(=O)N[C@@H](CCC(=O)O)C(=O)N[C@@H](CC(C)C)C(=O)O [Equusin-3] (H-KLYQRILWRLISEL-OH),4000
15,CC[C@H](C)[C@H](NC(=O)[C@H](CCCCN)NC(=O)[C@H](CC(C)C)NC(=O)[C@H](Cc1c[nH]cn1)NC(=O)[C@@H](N)CC(C)C)C(=O)N[C@@H](CC(C)C)C(=O)N[C@@H](CCCCN)C(=O)N[C@H](C(=O)N[C@H](C(=O)N[C@@H](CCCNC(=N)N)C(=O)N[C@@H](CC(C)C)C(=O)N[C@@H](CC(C)C)C(=O)O)[C@@H](C)CC)[C@@H](C)CC [Elephasin-1] (H-LHLKILKIIRLL-OH),4000
16,CC[C@H](C)[C@H](NC(=O)[C@H](Cc1c[nH]cn1)NC(=O)[C@@H](N)CC(C)C)C(=O)NCC(=O)N[C@@H](CC(C)C)C(=O)N[C@H](C(=O)N[C@@H](CCCCN)C(=O)N[C@H](C(=O)N[C@@H](Cc1ccc(O)cc1)C(=O)N[C@@H](CC(C)C)C(=O)NCC(=O)N[C@@H](CO)C(=O)N[C@@H](Cc1ccccc1)C(=O)N[C@@H](C)C(=O)N[C@@H](CC(C)C)C(=O)O)[C@@H](C)O)[C@@H](C)CC [Eudyptin-1] (H-LHIGLIKTYLGSFAL-OH),64000

# — publication doi:10.1101/2023.10.01.560353v1 (bioRxiv, 2023)
